Reference: PMC4503722, “Novel Phenotypic Outcomes Identified for a Public Collection of Approved Drugs from a Publicly Accessible Panel of Assays” (PLoS ONE, 2015)

Each compound was assayed on HCT116 cells treated with a GSK3β inhibitor (assay: cells). Details: Homo sapiens, HCT-116, 72 h, read-out: HCT-116 (GSK3β) viab. IC50.
Assay type: cell-based
`Cc1ccc2nc(N)[nH]c(=O)c2c1Sc1ccncc1` [nolatrexed, reference compound] showed an IC50 of 830 nM.

Same assay, conditions: Homo sapiens, HCT-116, read-out: GSK3b inh pretreated_Viability ATP HCT116
`Nc1nc2nc[nH]c2c(=S)[nH]1` [Tioguanine] showed an IC50 of 163 nM. `O=C(O)c1ccc(-n2nc(-c3ccccc3O)nc2-c2ccccc2O)cc1` [deferasirox] was tested, and the IC50 was 242 nM. `Cc1ccc2nc(N)[nH]c(=O)c2c1Sc1ccncc1` [nolatrexed, reference compound] was tested, and the IC50 was 830 nM.

Each compound was assayed on HT-29 (assay: cells). Details: Homo sapiens, HT-29, read-out: Basal_Viability ATP HT-29.
Assay type: cell-based
In the case of `Nc1nc2nc[nH]c2c(=S)[nH]1` [Tioguanine], the IC50 is reported as 49.3 nM. For `O=C(O)c1ccc(-n2nc(-c3ccccc3O)nc2-c2ccccc2O)cc1` [deferasirox], the IC50 was 516 nM.

Same assay, conditions: Homo sapiens, HT-29; Table 2; 72 h, Cell TiterGlo, non-adherent; 20 coded; read-out: HT-29 viab. IC50
With `Cc1ccc2nc(N)[nH]c(=O)c2c1Sc1ccncc1` [nolatrexed, reference compound] the IC50 was 4700 nM.

Same assay, conditions: Homo sapiens, HT-29; read-out: Basal_Viability ATP HT-29
`Cc1ccc2nc(N)[nH]c(=O)c2c1Sc1ccncc1` [nolatrexed, reference compound] was tested, and the IC50 was 4750 nM.

These compounds were tested on endothelial tube formation in co-cultures of ECFCs and ADSCs treated with VEGF (assay: cells). Details: Homo sapiens, IC50 / EC50; endothelial tube area, ADSC/ECFC co-culture; read-out: Anti-Angiogenesis.
Assay type: cell-based, human
`Cc1ccc2nc(N)[nH]c(=O)c2c1Sc1ccncc1` [nolatrexed, reference compound] was tested, and the IC50 was 7370 nM.

Same assay, conditions: Homo sapiens, read-out: Anti-Angiogenesis
For `Nc1nc2nc[nH]c2c(=S)[nH]1` [Tioguanine], the IC50 was 622 nM. In the case of `O=C(O)c1ccc(-n2nc(-c3ccccc3O)nc2-c2ccccc2O)cc1` [deferasirox], the IC50 is reported as 2090 nM.

Same assay, conditions: Homo sapiens; read-out: Anti-Angio IC50
`Cc1ccc2nc(N)[nH]c(=O)c2c1Sc1ccncc1` [nolatrexed, reference compound] gave an IC50 of 7400 nM.

Each compound was assayed on HeLa cells (assay: cells). Details: not given.
Assay type: cell-based
For `Cc1ccc2nc(N)[nH]c(=O)c2c1Sc1ccncc1` [nolatrexed, reference compound], the “G2/M IC50 / EC50” value was 20 (values shown as 20 indicate that the compound was tested in concentration-response and showed no response at the highest concentration tested (e.g. IC50 > 20 μM)).

Same assay, conditions: Homo sapiens, HeLa, IC50 / EC50; HeLa; read-out: CellCycle G2/M
In the case of `Cc1ccc2nc(N)[nH]c(=O)c2c1Sc1ccncc1` [nolatrexed, reference compound], the EC50 is reported as greater than 10000 nM.

Same assay, conditions: Homo sapiens, HeLa, read-out: CellCycle G2/M
In the case of `Nc1nc2nc[nH]c2c(=S)[nH]1` [Tioguanine], the EC50 is reported as greater than 10000 nM. Compound `O=C(O)c1ccc(-n2nc(-c3ccccc3O)nc2-c2ccccc2O)cc1` [deferasirox] has an EC50 greater than 10000 nM.

Each compound was assayed on Colo320 (assay: cells). Details: Homo sapiens, COLO 320, read-out: Basal_Viability ATP Colo 320.
Assay type: cell-based
Compound `Nc1nc2nc[nH]c2c(=S)[nH]1` [Tioguanine] has an IC50 of 373 nM. For `O=C(O)c1ccc(-n2nc(-c3ccccc3O)nc2-c2ccccc2O)cc1` [deferasirox], the IC50 was 409 nM.

Same assay, conditions: Homo sapiens, COLO 320; Table 2; 72 h, Cell TiterGlo, non-adherent; 20 coded; read-out: Colo320 viab. IC50
With `Cc1ccc2nc(N)[nH]c(=O)c2c1Sc1ccncc1` [nolatrexed, reference compound] the IC50 was greater than 20000 nM.

Each compound was assayed on nuclear β-catenin in C2C12 cells (assay: cells). Details: Mus musculus, C2C12, IC50 / EC50; C2C12 beta-catenin translocation; read-out: Wnt Pathway.
Assay type: cell-based
Compound `Cc1ccc2nc(N)[nH]c(=O)c2c1Sc1ccncc1` [nolatrexed, reference compound] has an EC50 of 244 nM.

Same assay, conditions: Mus musculus, C2C12, read-out: Wnt Pathway
`Nc1nc2nc[nH]c2c(=S)[nH]1` [Tioguanine] gave an EC50 greater than 10000 nM. `O=C(O)c1ccc(-n2nc(-c3ccccc3O)nc2-c2ccccc2O)cc1` [deferasirox] was tested, and the EC50 was greater than 10000 nM.

Same assay, conditions: Mus musculus, C2C12; read-out: Wnt pot. EC50
In the case of `Cc1ccc2nc(N)[nH]c(=O)c2c1Sc1ccncc1` [nolatrexed, reference compound], the EC50 is reported as 240 nM.

Each compound was assayed on INS-1E cells (assay: cells). Details: Rattus norvegicus, INS-1E, read-out: Insulin Secretion.
Assay type: cell-based, rat
Compound `Nc1nc2nc[nH]c2c(=S)[nH]1` [Tioguanine] has an EC50 greater than 10000 nM. With `O=C(O)c1ccc(-n2nc(-c3ccccc3O)nc2-c2ccccc2O)cc1` [deferasirox] the EC50 was greater than 10000 nM.

Same assay, conditions: Rattus norvegicus, INS-1E; read-out: Ins. sec. EC50
For `Cc1ccc2nc(N)[nH]c(=O)c2c1Sc1ccncc1` [nolatrexed, reference compound], the EC50 was greater than 10000 nM.

Each compound was assayed against T1, hJAK2 (Homo sapiens, UniProt O60674) (assay: Cerep LANCE kinase assay hJAK2 (S1 assay 33)). Details: kinase assay; read-out: JAK2.
T1 construct: purchased Cerep (LANCE kinase assay platform, contract assay)
T1 sequence (O60674 whole entry): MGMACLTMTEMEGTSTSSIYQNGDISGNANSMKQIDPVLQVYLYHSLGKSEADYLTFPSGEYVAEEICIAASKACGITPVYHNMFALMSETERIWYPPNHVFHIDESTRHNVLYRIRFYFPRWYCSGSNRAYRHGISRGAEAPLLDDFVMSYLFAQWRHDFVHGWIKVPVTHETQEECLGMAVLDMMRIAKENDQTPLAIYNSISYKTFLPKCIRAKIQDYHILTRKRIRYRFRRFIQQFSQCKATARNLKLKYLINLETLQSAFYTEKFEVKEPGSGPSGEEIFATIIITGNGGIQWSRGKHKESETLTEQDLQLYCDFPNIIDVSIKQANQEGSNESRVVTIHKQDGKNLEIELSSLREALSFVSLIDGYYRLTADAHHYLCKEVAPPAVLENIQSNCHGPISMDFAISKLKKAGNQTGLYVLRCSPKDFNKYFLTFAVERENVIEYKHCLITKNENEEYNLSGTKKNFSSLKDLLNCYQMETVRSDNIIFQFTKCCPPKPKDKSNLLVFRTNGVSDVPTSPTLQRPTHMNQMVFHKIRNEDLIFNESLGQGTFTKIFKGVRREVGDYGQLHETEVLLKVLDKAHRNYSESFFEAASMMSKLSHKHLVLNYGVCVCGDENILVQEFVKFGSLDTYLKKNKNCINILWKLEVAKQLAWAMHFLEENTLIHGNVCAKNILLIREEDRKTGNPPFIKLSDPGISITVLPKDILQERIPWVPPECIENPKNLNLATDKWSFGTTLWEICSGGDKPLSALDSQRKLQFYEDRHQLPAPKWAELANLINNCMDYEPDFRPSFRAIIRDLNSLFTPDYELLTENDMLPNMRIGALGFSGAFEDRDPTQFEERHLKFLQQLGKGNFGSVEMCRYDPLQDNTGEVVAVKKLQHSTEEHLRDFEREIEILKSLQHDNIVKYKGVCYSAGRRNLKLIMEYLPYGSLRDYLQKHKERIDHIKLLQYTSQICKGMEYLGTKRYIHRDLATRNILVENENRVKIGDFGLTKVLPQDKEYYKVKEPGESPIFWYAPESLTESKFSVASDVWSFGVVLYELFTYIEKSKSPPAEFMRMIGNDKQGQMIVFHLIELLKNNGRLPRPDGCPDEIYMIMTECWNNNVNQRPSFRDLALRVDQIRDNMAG
Assay type: biochemical
`Nc1nc2nc[nH]c2c(=S)[nH]1` [Tioguanine] gave an IC50 greater than 20000 nM.

Same assay, conditions: read-out: JAK2
In the case of `O=C(O)c1ccc(-n2nc(-c3ccccc3O)nc2-c2ccccc2O)cc1` [deferasirox], the IC50 is reported as 18200 nM. Compound `Cc1ccc2nc(N)[nH]c(=O)c2c1Sc1ccncc1` [nolatrexed, reference compound] has an IC50 greater than 20000 nM.

These compounds were tested on RKO (assay: cells). Details: Homo sapiens, RKO, read-out: Basal_Viability ATP RKO.
Assay type: cell-based
Work on `Nc1nc2nc[nH]c2c(=S)[nH]1` [Tioguanine] yielded an IC50 of 343 nM. Work on `O=C(O)c1ccc(-n2nc(-c3ccccc3O)nc2-c2ccccc2O)cc1` [deferasirox] yielded an IC50 of 100 nM.

Same assay, conditions: Homo sapiens, RKO; Table 2; 72 h, Cell TiterGlo, non-adherent; 20 coded; read-out: RKO viab. IC50
`Cc1ccc2nc(N)[nH]c(=O)c2c1Sc1ccncc1` [nolatrexed, reference compound] was tested, and the IC50 was 340 nM.

Same assay, conditions: Homo sapiens, RKO; read-out: Basal_Viability ATP RKO
With `Cc1ccc2nc(N)[nH]c(=O)c2c1Sc1ccncc1` [nolatrexed, reference compound] the IC50 was 343 nM.

What follows are compounds tested on SW480 (assay: cells). Details: Homo sapiens, SW480, 72 h, Table 2; 72 h, Cell TiterGlo, non-adherent; 20 coded; read-out: SW480 viab. IC50.
Assay type: cell-based
Work on `Cc1ccc2nc(N)[nH]c(=O)c2c1Sc1ccncc1` [nolatrexed, reference compound] yielded an IC50 of 2200 nM.

Same assay, conditions: Homo sapiens, SW480, basal; read-out: Basal_Viability ATP SW480
`Cc1ccc2nc(N)[nH]c(=O)c2c1Sc1ccncc1` [nolatrexed, reference compound] gave an IC50 of 2240 nM.

Same assay, conditions: Homo sapiens, SW480, read-out: Basal_Viability ATP SW480
`Nc1nc2nc[nH]c2c(=S)[nH]1` [Tioguanine] was tested, and the IC50 was 402 nM. `O=C(O)c1ccc(-n2nc(-c3ccccc3O)nc2-c2ccccc2O)cc1` [deferasirox] gave an IC50 of 77.6 nM.

What follows are compounds tested against T2, hGSK3b (Homo sapiens, UniProt P49841) (assay: Cerep LANCE kinase assay hGSK3b (S1 assay 34)). Details: kinase assay; read-out: GSK3b.
T2 construct: purchased Cerep (LANCE kinase assay platform, contract assay)
T2 sequence (P49841 whole entry): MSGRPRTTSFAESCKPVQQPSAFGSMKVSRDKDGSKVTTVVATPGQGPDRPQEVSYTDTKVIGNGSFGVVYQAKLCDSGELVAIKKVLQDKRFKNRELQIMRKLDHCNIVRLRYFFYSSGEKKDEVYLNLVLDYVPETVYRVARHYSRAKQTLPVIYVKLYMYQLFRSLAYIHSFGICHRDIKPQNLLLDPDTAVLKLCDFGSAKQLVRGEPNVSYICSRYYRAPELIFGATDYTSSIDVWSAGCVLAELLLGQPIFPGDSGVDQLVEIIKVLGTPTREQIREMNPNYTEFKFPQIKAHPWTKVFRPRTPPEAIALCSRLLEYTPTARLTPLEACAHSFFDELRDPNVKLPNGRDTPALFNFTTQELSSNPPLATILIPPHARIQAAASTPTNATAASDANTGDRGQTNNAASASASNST
Assay type: biochemical
In the case of `Nc1nc2nc[nH]c2c(=S)[nH]1` [Tioguanine], the IC50 is reported as greater than 20000 nM.

Same assay, conditions: read-out: GSK3b
`O=C(O)c1ccc(-n2nc(-c3ccccc3O)nc2-c2ccccc2O)cc1` [deferasirox] was tested, and the IC50 was greater than 20000 nM. With `Cc1ccc2nc(N)[nH]c(=O)c2c1Sc1ccncc1` [nolatrexed, reference compound] the IC50 was greater than 20000 nM.

What follows are compounds tested on HCT116 (assay: cells). Details: Homo sapiens, HCT-116, 72 h, read-out: HCT-116 viab. IC50, Table 2; basal; 72 h, Cell TiterGlo, non-adherent; 20 coded.
Assay type: cell-based
For `Cc1ccc2nc(N)[nH]c(=O)c2c1Sc1ccncc1` [nolatrexed, reference compound], the IC50 was 3500 nM.

Same assay, conditions: Homo sapiens, HCT-116, basal; read-out: Basal_Viability ATP HCT116
`Cc1ccc2nc(N)[nH]c(=O)c2c1Sc1ccncc1` [nolatrexed, reference compound] showed an IC50 of 3500 nM.

Same assay, conditions: Homo sapiens, HCT-116, read-out: Basal_Viability ATP HCT116
In the case of `Nc1nc2nc[nH]c2c(=S)[nH]1` [Tioguanine], the IC50 is reported as 139 nM. With `O=C(O)c1ccc(-n2nc(-c3ccccc3O)nc2-c2ccccc2O)cc1` [deferasirox] the IC50 was 438 nM.

The compounds below were run against T3, hp70S6K1 (RPS6KB1) (Homo sapiens, UniProt P23443) (assay: Cerep LANCE kinase assay hp70S6K1 (S1 assay 31)). Details: kinase assay; read-out: p70S6K1.
T3 construct: purchased Cerep (LANCE kinase assay platform, contract assay)
T3 sequence (P23443 whole entry): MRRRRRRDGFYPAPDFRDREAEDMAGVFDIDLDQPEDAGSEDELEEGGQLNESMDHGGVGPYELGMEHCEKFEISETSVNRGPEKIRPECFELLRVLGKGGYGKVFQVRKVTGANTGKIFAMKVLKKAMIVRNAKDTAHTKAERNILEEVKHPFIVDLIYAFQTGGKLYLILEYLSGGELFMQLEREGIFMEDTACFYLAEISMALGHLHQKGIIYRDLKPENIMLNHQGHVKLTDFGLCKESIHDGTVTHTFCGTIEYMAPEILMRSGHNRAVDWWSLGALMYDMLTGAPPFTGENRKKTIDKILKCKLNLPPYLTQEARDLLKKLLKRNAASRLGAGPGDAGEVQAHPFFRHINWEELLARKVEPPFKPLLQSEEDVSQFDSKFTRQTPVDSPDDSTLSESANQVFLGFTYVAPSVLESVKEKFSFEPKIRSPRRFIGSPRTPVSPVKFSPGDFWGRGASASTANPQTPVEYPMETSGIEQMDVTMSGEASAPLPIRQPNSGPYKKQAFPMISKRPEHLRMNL
Assay type: biochemical
In the case of `Nc1nc2nc[nH]c2c(=S)[nH]1` [Tioguanine], the IC50 is reported as greater than 20000 nM.

Same assay, conditions: read-out: p70S6K1
With `O=C(O)c1ccc(-n2nc(-c3ccccc3O)nc2-c2ccccc2O)cc1` [deferasirox] the IC50 was greater than 20000 nM. Work on `Cc1ccc2nc(N)[nH]c(=O)c2c1Sc1ccncc1` [nolatrexed, reference compound] yielded an IC50 of 17800 nM.

The compounds below were run on SNU-C1 (assay: cells). Details: Homo sapiens, SNU-C1, 72 h, Table 2; 72 h, Cell TiterGlo, non-adherent; 20 coded; read-out: SNU-C1 viab. IC50.
Assay type: cell-based
For `Cc1ccc2nc(N)[nH]c(=O)c2c1Sc1ccncc1` [nolatrexed, reference compound], the IC50 was greater than 20000 nM.

Same assay, conditions: Homo sapiens, SNU-C1, read-out: Basal_Viability ATP SNU-C1
Work on `Nc1nc2nc[nH]c2c(=S)[nH]1` [Tioguanine] yielded an IC50 of 4400 nM. For `O=C(O)c1ccc(-n2nc(-c3ccccc3O)nc2-c2ccccc2O)cc1` [deferasirox], the IC50 was 233 nM.

What follows are compounds tested on NCI-H716 cells (assay: cells). Details: Homo sapiens, NCI-H716, read-out: GLP 1 Secretion.
Assay type: cell-based, Human
`Nc1nc2nc[nH]c2c(=S)[nH]1` [Tioguanine] gave an EC50 greater than 10000 nM. In the case of `O=C(O)c1ccc(-n2nc(-c3ccccc3O)nc2-c2ccccc2O)cc1` [deferasirox], the EC50 is reported as greater than 10000 nM.

Same assay, conditions: Homo sapiens, NCI-H716; read-out: GLP1 sec. EC50
`Cc1ccc2nc(N)[nH]c(=O)c2c1Sc1ccncc1` [nolatrexed, reference compound] showed an EC50 greater than 10000 nM.

Each compound was assayed against T4, hKDR (Homo sapiens, UniProt P35968) (assay: Cerep LANCE kinase assay hKDR (S1 assay 32)). Details: kinase assay; read-out: KDR.
T4 construct: purchased Cerep (LANCE kinase assay platform, contract assay)
T4 sequence (P35968 20-1356): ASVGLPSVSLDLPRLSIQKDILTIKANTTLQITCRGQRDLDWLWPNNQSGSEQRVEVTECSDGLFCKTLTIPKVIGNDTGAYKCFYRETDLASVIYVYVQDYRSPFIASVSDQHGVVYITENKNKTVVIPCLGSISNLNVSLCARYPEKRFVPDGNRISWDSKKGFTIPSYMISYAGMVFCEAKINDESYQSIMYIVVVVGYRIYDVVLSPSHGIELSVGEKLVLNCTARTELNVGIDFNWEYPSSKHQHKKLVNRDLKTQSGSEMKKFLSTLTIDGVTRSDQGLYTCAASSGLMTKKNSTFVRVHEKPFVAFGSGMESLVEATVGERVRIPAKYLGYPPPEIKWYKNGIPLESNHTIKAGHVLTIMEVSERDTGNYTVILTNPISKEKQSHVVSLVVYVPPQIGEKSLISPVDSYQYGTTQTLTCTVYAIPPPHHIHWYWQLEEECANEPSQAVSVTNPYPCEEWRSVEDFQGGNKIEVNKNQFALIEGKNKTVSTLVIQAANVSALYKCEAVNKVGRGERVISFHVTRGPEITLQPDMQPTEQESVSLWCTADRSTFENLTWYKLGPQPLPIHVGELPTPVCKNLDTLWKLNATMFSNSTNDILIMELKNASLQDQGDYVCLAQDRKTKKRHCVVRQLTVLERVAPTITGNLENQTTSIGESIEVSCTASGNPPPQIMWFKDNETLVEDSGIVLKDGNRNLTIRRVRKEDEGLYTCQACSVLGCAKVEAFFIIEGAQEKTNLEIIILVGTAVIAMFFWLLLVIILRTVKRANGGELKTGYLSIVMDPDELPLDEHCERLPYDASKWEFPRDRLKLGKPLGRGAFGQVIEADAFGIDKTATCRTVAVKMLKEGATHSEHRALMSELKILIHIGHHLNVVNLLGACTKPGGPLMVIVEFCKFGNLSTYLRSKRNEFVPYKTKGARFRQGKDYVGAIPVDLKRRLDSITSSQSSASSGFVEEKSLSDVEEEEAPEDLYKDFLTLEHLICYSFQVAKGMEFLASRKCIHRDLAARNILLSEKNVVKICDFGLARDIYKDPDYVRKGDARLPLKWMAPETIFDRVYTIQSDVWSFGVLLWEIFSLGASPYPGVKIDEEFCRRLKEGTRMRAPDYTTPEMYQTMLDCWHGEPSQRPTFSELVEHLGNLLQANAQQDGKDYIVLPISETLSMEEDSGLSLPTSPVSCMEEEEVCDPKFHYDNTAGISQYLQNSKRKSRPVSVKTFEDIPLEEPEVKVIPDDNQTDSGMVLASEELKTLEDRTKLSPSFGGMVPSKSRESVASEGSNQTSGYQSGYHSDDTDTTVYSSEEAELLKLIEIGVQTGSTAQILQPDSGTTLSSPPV
Assay type: biochemical
Compound `Nc1nc2nc[nH]c2c(=S)[nH]1` [Tioguanine] has an IC50 greater than 20000 nM.

Same assay, conditions: read-out: KDR
With `O=C(O)c1ccc(-n2nc(-c3ccccc3O)nc2-c2ccccc2O)cc1` [deferasirox] the IC50 was greater than 20000 nM. `Cc1ccc2nc(N)[nH]c(=O)c2c1Sc1ccncc1` [nolatrexed, reference compound] gave an IC50 greater than 20000 nM.

Each compound was assayed against T5, hFLT3 (Homo sapiens, UniProt P36888) (assay: Cerep LANCE kinase assay hFLT3 (S1 assay 35)). Details: kinase assay; read-out: FLT3.
T5 construct: purchased Cerep (LANCE kinase assay platform, contract assay)
T5 sequence (P36888 27-993): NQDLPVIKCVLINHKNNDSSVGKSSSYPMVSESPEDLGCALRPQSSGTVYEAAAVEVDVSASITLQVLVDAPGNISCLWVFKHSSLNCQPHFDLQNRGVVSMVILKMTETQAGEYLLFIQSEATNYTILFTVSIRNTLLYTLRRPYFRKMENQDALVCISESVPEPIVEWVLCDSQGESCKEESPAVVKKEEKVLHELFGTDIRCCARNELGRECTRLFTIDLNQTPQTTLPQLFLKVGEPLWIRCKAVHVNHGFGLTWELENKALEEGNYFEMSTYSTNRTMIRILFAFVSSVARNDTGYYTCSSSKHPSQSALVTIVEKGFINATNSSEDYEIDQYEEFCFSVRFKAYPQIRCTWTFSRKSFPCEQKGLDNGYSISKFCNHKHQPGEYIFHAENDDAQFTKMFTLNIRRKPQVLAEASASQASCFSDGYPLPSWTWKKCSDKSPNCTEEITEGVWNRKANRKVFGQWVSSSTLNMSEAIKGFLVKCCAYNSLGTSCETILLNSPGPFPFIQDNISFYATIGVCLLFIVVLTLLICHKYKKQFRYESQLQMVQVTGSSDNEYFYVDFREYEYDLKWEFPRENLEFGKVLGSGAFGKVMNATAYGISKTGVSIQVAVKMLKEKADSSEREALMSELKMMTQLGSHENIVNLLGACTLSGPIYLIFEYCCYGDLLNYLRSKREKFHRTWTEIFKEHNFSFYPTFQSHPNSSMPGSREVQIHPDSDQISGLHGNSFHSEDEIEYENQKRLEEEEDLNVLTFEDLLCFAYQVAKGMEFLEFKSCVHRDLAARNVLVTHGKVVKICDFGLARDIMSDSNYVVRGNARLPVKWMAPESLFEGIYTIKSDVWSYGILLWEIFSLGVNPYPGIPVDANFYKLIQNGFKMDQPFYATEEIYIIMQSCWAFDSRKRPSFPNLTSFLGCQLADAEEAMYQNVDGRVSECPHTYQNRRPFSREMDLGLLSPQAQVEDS
Assay type: biochemical
`Nc1nc2nc[nH]c2c(=S)[nH]1` [Tioguanine] was tested, and the IC50 was greater than 20000 nM.

Same assay, conditions: read-out: FLT3
`O=C(O)c1ccc(-n2nc(-c3ccccc3O)nc2-c2ccccc2O)cc1` [deferasirox] gave an IC50 greater than 20000 nM. In the case of `Cc1ccc2nc(N)[nH]c(=O)c2c1Sc1ccncc1` [nolatrexed, reference compound], the IC50 is reported as greater than 20000 nM.

What follows are compounds tested on DLD-1 (assay: cells). Details: Homo sapiens, DLD-1, 72 h, read-out: DLD-1 viab. IC50.
Assay type: cell-based
Compound `Cc1ccc2nc(N)[nH]c(=O)c2c1Sc1ccncc1` [nolatrexed, reference compound] has an IC50 greater than 20000 nM.

Same assay, conditions: Homo sapiens, DLD-1, read-out: Basal_Viability ATP DLD-1
`Nc1nc2nc[nH]c2c(=S)[nH]1` [Tioguanine] gave an IC50 of 108 nM. For `O=C(O)c1ccc(-n2nc(-c3ccccc3O)nc2-c2ccccc2O)cc1` [deferasirox], the IC50 was 651 nM.
